Holding throughout (experiment): TPP-CCR in living HL-60 cells
What all share (format): cell-based

One assay concerns the target T1, OGDH (Homo sapiens, UniProt Q02218).
T1 construct: endogenous in cells; host or cells: HL-60 (ATCC CCL-240)
T1 sequence (Q02218 41-1023): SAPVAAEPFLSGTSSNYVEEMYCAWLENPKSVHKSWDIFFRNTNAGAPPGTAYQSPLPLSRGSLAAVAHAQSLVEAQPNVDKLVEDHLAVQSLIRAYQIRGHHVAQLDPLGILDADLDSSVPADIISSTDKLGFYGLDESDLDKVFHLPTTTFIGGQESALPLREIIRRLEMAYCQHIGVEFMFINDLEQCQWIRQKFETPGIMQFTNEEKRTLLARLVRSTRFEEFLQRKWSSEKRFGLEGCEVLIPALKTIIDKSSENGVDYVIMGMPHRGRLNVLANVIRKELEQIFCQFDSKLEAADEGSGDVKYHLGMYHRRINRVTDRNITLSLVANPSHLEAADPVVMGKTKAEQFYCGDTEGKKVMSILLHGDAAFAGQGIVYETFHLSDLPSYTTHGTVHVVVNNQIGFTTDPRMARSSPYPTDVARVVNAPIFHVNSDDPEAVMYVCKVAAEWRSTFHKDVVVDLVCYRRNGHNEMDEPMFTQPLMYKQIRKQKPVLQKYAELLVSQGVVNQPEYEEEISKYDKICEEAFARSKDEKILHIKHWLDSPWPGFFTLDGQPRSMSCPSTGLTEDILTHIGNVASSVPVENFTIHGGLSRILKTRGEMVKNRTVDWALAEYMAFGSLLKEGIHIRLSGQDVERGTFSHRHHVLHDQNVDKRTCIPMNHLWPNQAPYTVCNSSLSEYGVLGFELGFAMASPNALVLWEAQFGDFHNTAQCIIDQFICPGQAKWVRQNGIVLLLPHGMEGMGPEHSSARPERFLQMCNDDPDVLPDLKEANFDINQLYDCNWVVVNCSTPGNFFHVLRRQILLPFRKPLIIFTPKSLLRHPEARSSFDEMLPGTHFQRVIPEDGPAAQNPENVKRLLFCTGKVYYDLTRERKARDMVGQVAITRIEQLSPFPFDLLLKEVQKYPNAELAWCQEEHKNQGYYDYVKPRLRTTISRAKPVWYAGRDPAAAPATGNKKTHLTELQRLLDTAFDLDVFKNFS

Another assay has as its target T2, SMIM12 (Homo sapiens, UniProt Q96EX1).
T2 construct: endogenous in cells; host or cells: HL-60 (ATCC CCL-240)
T2 sequence (Q96EX1 1-92): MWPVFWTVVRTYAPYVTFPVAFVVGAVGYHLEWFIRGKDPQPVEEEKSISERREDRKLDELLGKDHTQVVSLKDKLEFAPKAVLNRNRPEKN

The next assay deals with T3, ANP32E (Homo sapiens, UniProt Q9BTT0).
T3 construct: dose–responses (mean over replicates), derived from TPP-CCR experiments in living cells; endogenous in cells; host or cells: HL-60 cells (ATCC No. CCL-240)
T3 sequence (Q9BTT0 whole entry): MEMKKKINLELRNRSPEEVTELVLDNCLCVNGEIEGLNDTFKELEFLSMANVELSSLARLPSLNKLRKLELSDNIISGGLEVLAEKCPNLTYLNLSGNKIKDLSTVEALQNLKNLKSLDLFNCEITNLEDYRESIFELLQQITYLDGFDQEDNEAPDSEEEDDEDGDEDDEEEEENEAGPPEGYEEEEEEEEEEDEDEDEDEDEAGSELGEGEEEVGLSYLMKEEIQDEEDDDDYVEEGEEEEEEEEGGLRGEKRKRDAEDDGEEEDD

The mark [1] stands for this setting: living HL-60 cells, […] °C, TMT-MS.

In general, Hill slope refers to the slope factor of the fitted curve. Take `Cc1cnc(Nc2ccc(F)cc2Cl)nc1-c1c[nH]c(C(=O)N[C@H](CO)c2cccc(Cl)c2)c1` [ERK 11e]: the Hill slope at OGDH (TPP-CCR, living cells, OGDH) was found to be 0.43; on SMIM12 (TPP-CCR, living cells, SMIM12) it was 0.47; on ANP32E (TPP-CCR, living cells, ANP32E) it was 0.58. For the same compound, the EC50 at OGDH (setting [1]) is 417 nM; at SMIM12 (living HL-60 cells, […] °C, TMT-MS, read-out: pEC50 (SMIM12) (converted)), 427 nM; at ANP32E (living HL-60 cells, […] °C, TMT-MS, read-out: pEC50 (ANP32E) (converted)), 166 nM. The “Hill slope (OGDH)” value at OGDH (setting [1]) was determined as 0.43. At SMIM12 (setting [1]), the “Hill slope (SMIM12)” value came out at 0.47. Besides, the “Hill slope (ANP32E)” value at ANP32E (setting [1]) worked out at 0.58.
